Assay results reported in patent publication US9890149B2 (NuBridge BioSciences, priority 2015, dated 2018).

Each compound was assayed against T1, ΔF508 mutant CFTR (Homo sapiens, UniProt P13569, DEL508-508) (assay: Fluorescence Assay (halide-sensitive YFP, iodide influx) for ΔF508 mutant CFTR activity). Conditions: FRT cells expressing ΔF508-CFTR and YFP-H148Q/I152L, incubated 27° C. 20-24 h; forskolin (20 μM) and test compounds (20 μM) for 20 min; rate of fluorescence quenching by I−, normalized to forskolin alone.
T1 construct: expressed in transfected cells; host or cells: Fischer rat thyroid (FRT) cells
Format: cell-based
Text: The ΔF508 mutant CFTR activities of the CFTR modulators are detected using the Fluorescence Assay developed by Pedemonte (Pedemonte N., et al., Antihypertensive 1,4-dihydropyridines as correctors of the cystic fibrosis transmembrane conductance regulator channel gating defect caused by cystic fibrosis mutations, Mol. Pharmacol., 2005, 68, 1736-1746).
Fischer rat thyroid (FRT) cells, stably transfected with ΔF508 were retransfected with the YFP-H148Q/I152L fluorescent protein. The cells were plated (100,000 cells/well) on black 96-well microplates with clear plastic bottom (Corning Life Sciences, Acton, Mass.).
The 96-well microplates containing FRT cells expressing F508-CFTR and the halide-sensitive YFP were incubated at 27° C. for 20 to 24 h to allow rescue of the mutant protein to the plasma membrane. After incubation, cells were washed with PBS (containing 137 mM NaCl, 2.7 mM KCl, 8.1 mM Na2HPO4, 1.5 mM KH2PO4, 1 mM CaCl2, and 0.5 mM MgCl2) and stimulated for 20 min with forskolin (20 μM) and test compounds (20 μM) in a final volume of […] Microplates were then transferred to a microplate reader for CFTR activity determination.

T1 sequence (P13569 with tags, fused parts or gaps DEL508-508): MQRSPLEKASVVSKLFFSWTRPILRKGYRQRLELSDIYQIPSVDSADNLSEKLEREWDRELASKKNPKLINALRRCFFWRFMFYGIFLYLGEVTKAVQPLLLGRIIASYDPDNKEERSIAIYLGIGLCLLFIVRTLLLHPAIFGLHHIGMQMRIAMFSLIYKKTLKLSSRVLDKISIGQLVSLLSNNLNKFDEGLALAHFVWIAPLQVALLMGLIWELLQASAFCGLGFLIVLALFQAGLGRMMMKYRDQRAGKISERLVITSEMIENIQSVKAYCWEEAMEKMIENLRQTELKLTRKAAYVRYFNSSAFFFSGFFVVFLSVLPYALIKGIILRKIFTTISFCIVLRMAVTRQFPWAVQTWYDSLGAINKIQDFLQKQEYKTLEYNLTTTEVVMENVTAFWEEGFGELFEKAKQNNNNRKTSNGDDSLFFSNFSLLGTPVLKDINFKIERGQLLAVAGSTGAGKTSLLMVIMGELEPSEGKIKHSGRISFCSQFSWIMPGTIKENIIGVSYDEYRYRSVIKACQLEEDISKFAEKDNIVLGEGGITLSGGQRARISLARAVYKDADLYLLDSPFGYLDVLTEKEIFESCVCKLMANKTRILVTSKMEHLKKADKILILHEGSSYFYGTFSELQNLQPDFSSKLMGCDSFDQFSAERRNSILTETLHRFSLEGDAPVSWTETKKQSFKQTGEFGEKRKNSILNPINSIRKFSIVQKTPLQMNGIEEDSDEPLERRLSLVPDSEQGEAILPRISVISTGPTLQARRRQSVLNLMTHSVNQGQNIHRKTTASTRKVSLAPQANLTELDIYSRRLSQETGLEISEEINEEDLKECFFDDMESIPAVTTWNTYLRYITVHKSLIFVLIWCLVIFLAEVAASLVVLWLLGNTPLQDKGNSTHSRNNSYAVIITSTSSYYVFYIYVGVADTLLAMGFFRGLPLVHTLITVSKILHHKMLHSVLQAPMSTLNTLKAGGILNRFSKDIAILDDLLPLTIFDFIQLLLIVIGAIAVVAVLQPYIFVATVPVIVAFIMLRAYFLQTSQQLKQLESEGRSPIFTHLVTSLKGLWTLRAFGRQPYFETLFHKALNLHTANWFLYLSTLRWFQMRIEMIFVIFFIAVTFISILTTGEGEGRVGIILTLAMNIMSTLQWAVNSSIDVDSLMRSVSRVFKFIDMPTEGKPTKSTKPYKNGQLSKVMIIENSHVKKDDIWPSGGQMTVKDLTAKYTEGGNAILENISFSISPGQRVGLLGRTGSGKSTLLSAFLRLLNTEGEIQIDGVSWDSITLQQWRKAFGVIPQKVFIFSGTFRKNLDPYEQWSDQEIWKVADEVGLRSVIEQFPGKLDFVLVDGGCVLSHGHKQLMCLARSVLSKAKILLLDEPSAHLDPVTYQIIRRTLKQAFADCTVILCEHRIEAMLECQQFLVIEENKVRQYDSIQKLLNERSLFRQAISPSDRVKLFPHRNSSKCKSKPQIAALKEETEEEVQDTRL

| Compound | CFTR Activity |
| --- | --- |
| Cl.NCC(CCl)Oc1sncc1NC(=O)c1nc(-c2c(F)cccc2F)c(F)cc1N (stereo not shown) [Example 33, 3-amino-N-(5-((1-amino-3-chloropropan-2-yl)oxy)isothiazol-4-yl)-6-(2,6-difluorophenyl)-5-fluoropicolinamide hydrochloride] | 1.6 |
| Cl.NCC(CCl)COc1sncc1NC(=O)c1nc(-c2c(F)cccc2F)c(F)cc1N (stereo not shown) [Example 34, 3-amino-N-(5-(3-amino-2-(chloromethyl)propoxy)isothiazol-4-yl)-6-(2,6-difluorophenyl)-5-fluoropicolinamide hydrochloride] | 1.6 |
| Cl.Nc1cc(F)c(-c2c(F)cccc2F)nc1C(=O)Nc1cnsc1OCC1CCCNC1 (stereo not shown) [Example 35, 3-amino-6-(2,6-difluorophenyl)-5-fluoro-N-(5-(piperidin-3-ylmethoxy)isothiazol-4-yl)picolinamide hydrochloride] | 1.6 |
| Cl.NCCCCOc1sncc1NC(=O)c1nc(-c2c(F)cccc2F)c(F)cc1N [Example 36, 3-amino-N-(5-(4-aminobutoxy)isothiazol-4-yl)-6-(2,6-difluorophenyl)-5-fluoropicolinamide hydrochloride] | 1.8 |
| Cl.Nc1cc(F)c(-c2c(F)cccc2F)nc1C(=O)Nc1cnsc1OC1CCCC(N)C1 (stereo not shown) [Example 37, 3-amino-N-(5-((3-aminocyclohexyl)oxy)isothiazol-4-yl)-6-(2,6-difluorophenyl)-5-fluoropicolinamide hydrochloride] | 2.9 |
| Cl.Nc1cc(F)c(-c2ccccc2)nc1C(=O)Nc1cnsc1OC1CCNC1 (stereo not shown) [Example 38, 3-amino-5-fluoro-6-phenyl-N-(5-(pyrrolidin-3-yloxy)isothiazol-4-yl)picolinamide hydrochloride] | 1.3 |
| Cl.O=C(Nc1cnsc1OC1CCNCC1)c1ccc(F)c(-c2ccncc2)n1 [Example 39, 3-fluoro-N-(5-(piperidin-4-yloxy)isothiazol-4-yl)-[2,4′-bipyridine]-6-carboxamide hydrochloride] | 0.3 |
| Cl.O=C(Nc1cnsc1OC1CCCNCC1)c1nc(-c2c(F)cccc2F)ccc1F (stereo not shown) [Example 40, N-(5-(azepan-4-yloxy)isothiazol-4-yl)-6-(2,6-difluorophenyl)-3-fluoropicolinamide hydrochloride] | 1.4 |
| COc1cccc(F)c1-c1nc(C(=O)Nc2cnsc2OC2CCCNCC2)ccc1F.Cl (stereo not shown) [Example 41, N-(5-(azepan-4-yloxy)isothiazol-4-yl)-5-fluoro-6-(2-fluoro-6-methoxyphenyl)picolinamide hydrochloride] | 1.6 |

More lines, now with the values ahead:

| CFTR Activity | Compound |
| --- | --- |
| 0.4 | Cl.O=C(Nc1cnsc1OC1CCCNCC1)c1ccc(C(F)(F)F)c(-c2c(F)cccc2F)n1 (stereo not shown) [Example 42, N-(5-(azepan-4-yloxy)isothiazol-4-yl)-6-(2,6-difluorophenyl)-5-(trifluoromethyl)picolinamide hydrochloride] |
| 0.3 | Cl.O=C(Nc1cnsc1OCC1CCNCC1)c1ccc(C(F)(F)F)c(-c2c(F)cccc2F)n1 [Example 43, 6-(2,6-difluorophenyl)-N-(5-(piperidin-4-ylmethoxy)isothiazol-4-yl)-5-(trifluoromethyl)picolinamide hydrochloride] |
| 0.3 | Cl.O=C(Nc1cnsc1OCC1CNC1)c1ccc(C(F)(F)F)c(-c2c(F)cccc2F)n1 [Example 44, N-(5-(azetidin-3-ylmethoxy)isothiazol-4-yl)-6-(2,6-difluorophenyl)-5-(trifluoromethyl)picolinamide hydrochloride] |
| 1.7 | Cl.O=C(Nc1cnsc1OC1CCNCC1)c1ccc(C(F)(F)F)c(-c2c(F)cccc2F)n1 [Example 45, 6-(2,6-difluorophenyl)-N-(5-(piperidin-4-yloxy)isothiazol-4-yl)-5-(trifluoromethyl)picolinamide hydrochloride] |
